Source: patent publication US9120746B2, “Crystalline form of a 3-phenoxymethylpyrrolidine compound” (Theravance Biopharma R&D IP, LLC, priority 2010, dated 2015)
Counter-ions that a name gives are not always drawn. Like-named read-outs stand apart in the source and are kept apart here.

Columns and labels:
hSERT [1] = molecular target: T1, hSERT (Homo sapiens, UniProt P31645); assay: hSERT neurotransmitter uptake assay (3H-5-HT); format: cell-based; details: 3H-5-HT 20 nM, HEK-293 hSERT cells; read-out: serotonin reuptake inhibition pIC50 (converted)
T1 construct: expressed in transfected cells; host or cells: HEK-293 derived cell line, stably transfected
Protocol: (§1) Neurotransmitter uptake assays were used to measure inhibition of ^3H-serotonin (^3H-5-HT), ^3H-norepinephrine (^3H-NE), and ^3H-dopamine (^3H-DA) uptake into cells expressing the respective transporter (hSERT, hNET or hDAT) in order to determine the pIC50 values of test compounds at the transporters.
(§2) HEK-293 derived cell lines stably-transfected with hSERT, hNET, or hDAT, respectively, were grown in DMEM medium supplemented with 10% dialyzed FBS (for hSERT) or FBS (for hNET and hDAT), 100 μg/ml penicillin, 100 μg/ml streptomycin, 2 mM L-glutamine and 250 μg/ml of the aminoglycoside antibiotic G418 (for hSERT and hNET) or 800 ug/ml (for hDAT), in a 5% CO2 humidified incubator at 37° C. When cultures reached 80% confluence, the cells were washed thoroughly in PBS (without Ca^2+ and Mg^2+) and lifted with 5 mM EDTA in PBS. […]
(§3) Neurotransmitter uptake assays were performed in a 96-well assay plate in a total volume of 400 μl assay buffer (Krebs-Ringer bicarbonate buffer containing HEPES (10 mM), CaCl2 (2.2 mM), ascorbic acid (200 μM) and pargyline (200 μM), pH 7.4) with 1.5×10^4 and 2.5×10^4 cells, for SERT, NET, and DAT, respectively. […] Non-specific neurotransmitter uptake was determined in the presence of 2.5 μM duloxetine, 2.5 μM desipramine, or 10 uM GBR-12909 (each in Dilution Buffer) for the hSERT, hNET, or hDAT assays, respectively. […]

hSERT [2] = molecular target: T1, hSERT; assay: hSERT membrane radioligand binding assay (3H-citalopram); details: 1.0 nM 3H-citalopram, HEK-293 hSERT membranes; read-out: SERT pKi (converted)
Protocol: (§4) Membrane radioligand binding assays were used to measure inhibition of labeled ligand (^3H-citalopram or ^3H-nisoxetine or ^3H-WIN35428) binding to membranes prepared from cells expressing the respective human recombinant transporter (hSERT or hNET or hDAT) in order to determine the pKi values of test compounds at the transporters.
(§5) Recombinant human embryonic kidney (HEK-293) derived cell lines stably transfected with hSERT or hNET, respectively, were grown in Dulbecco's Modified Eagle's Medium (DMEM) medium supplemented with 10% dialyzed FBS (for hSERT) or FBS (for hNET), 100 μg/ml penicillin, 100 μg/ml streptomycin, 2 mM L-glutamine and 250 μg/ml of the aminoglycoside antibiotic G418, in a 5% CO2 humidified incubator at 37° C. When cultures reached 80% confluence, the cells were washed thoroughly in PBS (without Ca^2+ and Mg^2+) and lifted with 5 mM EDTA in PBS. […] Protein concentration of the membrane suspension was determined using a Bio-Rad Bradford Protein Assay kit. […]
(§6) Stock solutions (10 mM in DMSO) of test compound were prepared and serial dilutions made using Dilution Buffer (50 mM Tris-HCl, 120 mM NaCl, 5 mM KCl, pH 7.4, 0.1% BSA, 400 μM ascorbic acid). Non-specific radioligand binding was determined in the presence of 1 μM duloxetine, 1 μM desipramine or 10 μM GBR12909 (each in Dilution Buffer) for the hSERT, hNET or hDAT assays, respectively. […]

hNET [3] = molecular target: T2, hNET (Homo sapiens, UniProt P23975); assay: hNET neurotransmitter uptake assay (3H-NE); format: cell-based; details: 3H-NE 50 nM, HEK-293 hNET cells; read-out: norepinephrine reuptake inhibition pIC50 (converted)
T2 construct: expressed in transfected cells; host or cells: HEK-293 derived cell line, stably transfected
Protocol: as §1, §2, §3

hNET [4] = molecular target: T2, hNET; assay: hNET membrane radioligand binding assay (3H-nisoxetine); details: 1.0 nM 3H-nisoxetine, HEK-293 hNET membranes; read-out: NET pKi (converted)
Protocol: as §4, §5, §6

Aqueous solubility = format: physicochemical; details: read-out: SOLUBILITY CONCENTRATION
From the text: The crystalline hydrochloride salt of the invention has very good aqueous solubility in a wide pH range: […]

[5] = Thermal analysis (DSC, TGA); format: physicochemical
Protocol: Differential scanning calorimetry (DSC) was performed using a TA Instruments
Model Q-100 module with a Thermal Analyst controller. Data were collected and analyzed using TA Instruments Thermal Solutions software. A 1.22 mg sample of the crystalline hydrochloride salt of the invention was accurately weighed into a covered aluminum pan. After a 5 minute isothermal equilibration period at 22° C., the sample was heated using a linear heating ramp of 10° C./min from 22° C. to 250° C.

[6] = Deliquescence on exposure to atmospheric moisture; format: physicochemical; details: exposed to atmospheric moisture
[7] = Solution stability (HPLC peak area); format: physicochemical; details: for Change in HPLC Peak Area: 10 μm/mL, 3 days at 40° C.
[8] = Dynamic moisture sorption (DMS) assessment; format: physicochemical; details: exposed to up to 85% relative humidity, 25° C.
Protocol: A dynamic moisture sorption (DMS) assessment (also known as a moisture sorption-desorption profile) was performed for the crystalline hydrochloride salt of the invention using a VTI atmospheric microbalance, SGA-100 system (VTI Corp., Hialeah, Fla. 33016). A sample size of approximately 2.73 mg was used and the humidity was set at the ambient value at the start of the analysis. The DMS analysis consisted of a scan rate of 5% relative humidity/step over the full humidity range of 2% relative humidity to 90% relative humidity. The DMS run was performed isothermally at 25° C.

T1 sequence (P31645 whole entry): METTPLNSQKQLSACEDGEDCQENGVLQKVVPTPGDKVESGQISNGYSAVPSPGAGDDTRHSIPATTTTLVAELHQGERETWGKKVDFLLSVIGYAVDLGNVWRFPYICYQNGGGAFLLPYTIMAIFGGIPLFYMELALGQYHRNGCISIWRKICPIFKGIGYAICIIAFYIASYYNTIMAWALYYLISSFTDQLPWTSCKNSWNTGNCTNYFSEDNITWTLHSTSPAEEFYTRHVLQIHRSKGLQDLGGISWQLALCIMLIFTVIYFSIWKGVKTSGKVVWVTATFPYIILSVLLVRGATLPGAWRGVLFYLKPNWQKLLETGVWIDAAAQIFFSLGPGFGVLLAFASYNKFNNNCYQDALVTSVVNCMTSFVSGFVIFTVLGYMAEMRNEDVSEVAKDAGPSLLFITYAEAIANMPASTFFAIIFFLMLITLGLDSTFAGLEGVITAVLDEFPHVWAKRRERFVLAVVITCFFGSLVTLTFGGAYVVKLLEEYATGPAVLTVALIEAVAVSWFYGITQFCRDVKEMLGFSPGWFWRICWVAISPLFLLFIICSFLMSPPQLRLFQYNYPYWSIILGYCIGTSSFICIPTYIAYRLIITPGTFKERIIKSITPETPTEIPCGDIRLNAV
T2 sequence (P23975 whole entry): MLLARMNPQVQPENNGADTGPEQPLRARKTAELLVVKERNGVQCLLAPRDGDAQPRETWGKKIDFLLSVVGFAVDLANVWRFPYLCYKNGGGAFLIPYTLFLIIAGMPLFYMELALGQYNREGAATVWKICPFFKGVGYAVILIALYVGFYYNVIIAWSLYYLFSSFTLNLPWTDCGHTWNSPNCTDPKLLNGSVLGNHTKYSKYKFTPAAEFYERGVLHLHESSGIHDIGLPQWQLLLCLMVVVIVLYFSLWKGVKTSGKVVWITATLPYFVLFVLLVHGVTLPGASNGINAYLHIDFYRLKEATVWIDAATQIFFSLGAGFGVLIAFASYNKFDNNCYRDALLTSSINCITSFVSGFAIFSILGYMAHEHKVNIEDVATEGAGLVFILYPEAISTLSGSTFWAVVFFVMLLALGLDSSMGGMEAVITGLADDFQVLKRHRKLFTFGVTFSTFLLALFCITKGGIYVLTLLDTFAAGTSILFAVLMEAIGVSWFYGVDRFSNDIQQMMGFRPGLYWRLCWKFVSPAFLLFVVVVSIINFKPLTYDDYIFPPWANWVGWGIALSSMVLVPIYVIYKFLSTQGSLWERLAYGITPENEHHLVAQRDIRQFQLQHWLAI

Row | SMILES | IC50 (hSERT [1]) | Ki (hSERT [2]) | IC50 (hNET [3]) | Ki (hNET [4]) | solubility (Aqueous solubility; aqueous HCl, simulated gastric fluid, HCl pH 2.0) | solubility (Aqueous solubility; phosphate buffer, aqueous buffer, 50 mM phosphate-buffered pH 7.4) | solubility (Aqueous solubility; un-buffered water) | thermal stability (DSC) ([5]; heating 10° C./min from 22° C. to 250° C.) | weight loss (TGA) ([5]; room temperature to 200° C.) | deliquescence [6] | Change in HPLC Peak Area ([7]; 50 mM citric acid pH 2.2) | Change in HPLC Peak Area ([7]; 50 mM phosphate-buffered pH 7.4) | stability at room temperature ([7]; room temperature, 30 days, concentrations of 1 mg/mL and 10 mg/mL) | weight gain [8]
1 | CC(C)[C@H](Oc1ccc(Cl)cc1)[C@H]1CCNC1 [Example 1 (TFA salt), (S)-3-[(S)-1-(4-Chlorophenoxy)-2-methylpropyl]pyrrolidine] | ≤ 10 nM | ≤ 10 nM | ≤ 10 nM | ≤ 10 nM | – | – | – | – | – | – | – | – | – | –
2 | CC(C)[C@H](Oc1ccc(Cl)cc1)[C@H]1CCNC1 [Example 1, Crystalline Hydrochloride Salt of (S)-3-[(S)-1-(4-Chlorophenoxy)-2-methylpropyl]pyrrolidine] | – | – | – | – | > 10000 µg/mL | > 10000 µg/mL | > 10000 µg/mL | no significant thermal decomposition below about 200 °C | did not lose any significant amount of weight | not to be deliquescent | 100.5% | 100.0% | no degradation | less than 1.0%
